We go through 8 compounds from patent US5885968A, “Triantennary cluster glycosides, their preparation and use” (Rijksuniversiteit te Leiden, priority 1992, dated 1999).

Assay [1] addresses T1, asialoglycoprotein receptor (Rattus norvegicus, UniProt P02706+P08290).
T1 construct: parenchymal cells isolated from rat liver; endogenous in cells; host or cells: primary parenchymal cells (hepatocytes) isolated from rat liver
T1 sequence (P02706 1-284): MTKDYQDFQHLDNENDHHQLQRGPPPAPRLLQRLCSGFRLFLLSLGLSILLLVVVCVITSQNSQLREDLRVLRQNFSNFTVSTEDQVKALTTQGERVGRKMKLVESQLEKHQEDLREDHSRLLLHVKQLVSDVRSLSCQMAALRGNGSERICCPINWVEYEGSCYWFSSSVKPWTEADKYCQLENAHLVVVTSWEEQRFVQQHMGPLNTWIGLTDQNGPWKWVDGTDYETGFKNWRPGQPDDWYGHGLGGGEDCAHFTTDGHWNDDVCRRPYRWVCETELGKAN
T1 sequence (P08290 1-301): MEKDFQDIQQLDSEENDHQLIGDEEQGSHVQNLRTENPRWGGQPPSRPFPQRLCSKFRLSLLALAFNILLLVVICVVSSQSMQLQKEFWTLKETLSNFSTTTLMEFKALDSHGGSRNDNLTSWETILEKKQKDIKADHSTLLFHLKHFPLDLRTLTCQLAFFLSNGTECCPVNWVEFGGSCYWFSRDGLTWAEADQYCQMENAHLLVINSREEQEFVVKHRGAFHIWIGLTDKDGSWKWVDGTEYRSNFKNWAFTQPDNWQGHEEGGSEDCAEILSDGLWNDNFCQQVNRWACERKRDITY
As to the kind of experiment: Inhibition of binding of radiolabeled asialoorosomucoid to rat liver parenchymal cells. The following applies: for Ki: rat liver parenchymal cells, labeled asialoorosomucoid. The source says: The affinity of cluster glycosides can be verified by means of binding studies. In them, it is considered to what extent the compounds are capable of inhibiting the binding of the radioisotopically labeled asioloorosomucoid to parenchymal cells isolated from rat liver according to a previously described procedure (ref 17). The sugar concentration at which inhibition arises is a measure of the affinity.

Assay [2] has as its target T2, Fuc/Gal receptor on the hepatic Kupffer cell (Rattus norvegicus, UniProt P10716).
T2 construct: Kupffer cells in DMEM medium, supplemented with 2% BSA and 2 mM CaCl2; endogenous in cells; host or cells: primary Kupffer cells of liver
T2 sequence (P10716 1-550): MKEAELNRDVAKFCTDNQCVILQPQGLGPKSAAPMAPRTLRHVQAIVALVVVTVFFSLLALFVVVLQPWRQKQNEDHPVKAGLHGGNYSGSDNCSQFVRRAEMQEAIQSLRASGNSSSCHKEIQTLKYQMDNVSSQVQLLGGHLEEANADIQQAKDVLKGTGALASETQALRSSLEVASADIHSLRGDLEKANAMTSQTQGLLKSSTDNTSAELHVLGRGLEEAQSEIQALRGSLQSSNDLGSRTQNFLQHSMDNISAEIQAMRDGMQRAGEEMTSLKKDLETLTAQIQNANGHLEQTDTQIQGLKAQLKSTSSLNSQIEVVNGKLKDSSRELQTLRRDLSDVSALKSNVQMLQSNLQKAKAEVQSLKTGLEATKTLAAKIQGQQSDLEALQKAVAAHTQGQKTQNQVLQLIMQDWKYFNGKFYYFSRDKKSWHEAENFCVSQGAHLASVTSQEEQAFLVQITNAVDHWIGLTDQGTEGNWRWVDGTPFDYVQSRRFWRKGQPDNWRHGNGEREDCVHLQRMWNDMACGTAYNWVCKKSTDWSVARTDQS
Nature of the assay: Inhibition of 125I-Lac-LDL binding to Kupffer cells. The settings on record: 4° C., 2 h. Here is the method:
An idea of the specificity of cluster glycosides for the asialoglycoprotein receptor on the hepatic parenchymal cell can be obtained by comparing the affinity for this receptor with the affinity for the likewise galactose recognizing Fuc/Gal receptor on the hepatic Kupffer cell. […] To that end, Kupffer cells in DMEM medium, supplemented with 2% BSA and 2 mM CaCl2, are incubated at 4° C. for 2 h with 3 μg/ml ^125 I-Lac-LDL in the absence or presence of the compound, in a concentration range of 1 nM to 300 μM. After the incubation the binding of ^125 I-Lac-LDL to the Kupffer cells is determined in a manner identical to that for ^125 I-ASOR binding to liver parenchymal cells.

For assay [3] the following is noted: cited from earlier work.
Assay [4] deals with rats. Nature of the assay: In vivo fate of lipoprotein (a) charged with glycolipid in rats. On the set-up: species or system rat. The following applies: rats. The text has this: The so prepared TG(20 Å)-chol (formula 20): [drawing 24] can also be used to direct apo(a) to the hepatic parenchymal cell. High levels of lp(a) are correlated with the occurence of coronary and vascular diseases. To date, an adequate clinical therapy to alleviate the pathogenesis is not available. To investigate whether TG(20 Å)C can be used to stimulate the hepatic uptake and processing of lp(a) this, isolated lp(a) was charged with TG(20 Å)-chol according to a procedure that is known per se and the in vivo behaviour of the particle was studied. Lp(a) (50 μg) in PBS was incubated at 20° C. for 30 min with 0, 5, 15 and 50 μg TG(20 Å) (-chol). This charge led to a changed behaviour of the apo(a) after intravenous injection into rats. This is illustrated in FIG. 8. […] On account of the high […] of TG(20 Å)-chol, very rapidly an exchange of this compound occurs between lp(a) and other lipoproteins and lipid compartments. This then leads to a stabilization of the lp(a) level in the bloodstream after a few minutes.
^125 I-Lp(a) (50 μg) was mixed with 50 μg of TG(20 Å)C or TG(4 Å)C in 500 μl PBS. After 30 min at room temperature, the mixtures were injected into rats at a dose of 50 μg of apolipoprotein/kg body weight. Ten minutes after injection, parenchymal, endothelial and Kupffer cells were isolated from the liver and counted for radioactivity. Values are expressed as 10-3.% of the injected dose per mg of cellular protein and are means of 3 experiments ± s.e.m.

Assay [5] has as its system rats. As to the kind of experiment: Serum cholesterol lowering after intravenous injection in rats. The assay is classed as in vivo, rat. The settings on record: injection into vena penis, 0.056-0.56 mg, FIG. 3. Here is the method:
This was verified as follows. Male rats (250-300 g) were anesthetized by means of ether, whereafter 500 gl PBS, having dissolved therein 0.56 mg, 0.18 mg, 0.056 mg or 0 mg TG(20 Å)-chol (formula 20) or 0.56 mg tris-glu-chol (formula 21): [drawing 19] was injected into the vena penis. At the times indicated in FIG. 3, blood samples of 300 μl were taken by means of orbital puncture. The blood samples were centrifuged (5 min; 1500 g) and the serum was used for a cholesterol assay by means of the CHOD-PAP kit of Boehringer Mannheim. 24 Hours after injection the rat was bled. The blood was centrifuged whereafter the serum was pipeted. Then the serum was subjected to gradient density ultracentrifugation and the various lipoprotein fractions were isolated: HDL (1.21<d<1.05), LDL (1.050<d<1.019), IDL (1.019<d<1.006) and VLDL (d<1.006). Finally, the total cholesterol concentrations of these lipoprotein fractions were assayed by means of the CHOD-PAP kit.

The mark [6] stands for this setting: read-out: Asialoglycoprotein receptor Ki.
[7] abbreviates: read-out: Asialoglycoprotein receptor pKi (± S.E.) (converted).
The mark [8] stands for this setting: read-out: Fuc-Gal receptor pKi (converted).
The mark [9] stands for this setting: 125I-Lp(a) 50 μg + 50 μg glycolipid, 10 min after injection, mean ± s.e.m., 3 experiments.

Where two headings read alike, the source gives them in different places.

Take `COC(=O)CCCCC(=O)NCC(=O)NC(COCOCCOCCOCCOCCO[C@@H]1O[C@H](CO)[C@H](O)[C@H](O)[C@H]1O)(COCOCCOCCOCCOCCO[C@@H]1O[C@H](CO)[C@H](O)[C@H](O)[C@H]1O)COCOCCOCCOCCOCCO[C@@H]1O[C@H](CO)[C@H](O)[C@H](O)[C@H]1O` [Compound 15e]: the Ki was 0.2 µM in assay [1] (setting [6]), 0.209 µM in assay [1] (setting [7]), above 100 µM in assay [2] (read-out: Fuc-Gal receptor Ki) and above 100 µM in assay [2] (setting [8]).
Regarding `COC(=O)CCCCC(=O)NCC(=O)NC(CO[C@@H]1O[C@H](CO)[C@H](O)[C@H](O)[C@H]1O)(CO[C@@H]1O[C@H](CO)[C@H](O)[C@H](O)[C@H]1O)CO[C@@H]1O[C@H](CO)[C@H](O)[C@H](O)[C@H]1O` [Compound 15a], the Ki in assay [1] (setting [6]) is 390 µM; in assay [1] (setting [7]) it was 389 µM; in assay [2] (read-out: Fuc-Gal receptor Ki), above 30 µM; in assay [2] (setting [8]) it was above 31.6 µM.
As to `CC(C)CCC[C@@H](C)[C@H]1CC[C@H]2[C@@H]3CC=C4C[C@@H](OC(=O)CCC(=O)NCC(=O)NC(CO[C@@H]5O[C@H](CO)[C@H](O)[C@H](O)[C@H]5O)(CO[C@@H]5O[C@H](CO)[C@H](O)[C@H](O)[C@H]5O)CO[C@@H]5O[C@H](CO)[C@H](O)[C@H](O)[C@H]5O)CC[C@]4(C)[C@H]3CC[C@]12C` [tris-gal-chol], the “Removal of cholesterol from the bloodstream and liver uptake” value in assay [3] is “capable of irreversibly removing cholesterol from the bloodstream and inducing cholesterol uptake by the liver”. Besides, in assay [3] (high doses necessary), the “Potency as hypolipidemic agent” value is “low”. Moreover, the “Route of LDL removal after injection” value in assay [3] (in vivo) is on record as “via the Fuc/Gal receptors on hepatic Kupffer cells”.
On to `COC(=O)CCCCC(=O)NCC(=O)NC(COCOCCO[C@@H]1O[C@H](CO)[C@H](O)[C@H](O)[C@H]1O)(COCOCCO[C@@H]1O[C@H](CO)[C@H](O)[C@H](O)[C@H]1O)COCOCCO[C@@H]1O[C@H](CO)[C@H](O)[C@H](O)[C@H]1O` [Compound 15b], for which the Ki in assay [1] (setting [6]) was 19 µM; in assay [1] (setting [7]), 19.1 µM; in assay [2] (read-out: Fuc-Gal receptor Ki), above 100 µM; in assay [2] (setting [8]) it was above 100 µM.
Consider `CC(C)CCC[C@@H](C)[C@H]1CC[C@H]2[C@@H]3CC=C4C[C@@H](OC(=O)CCC(=O)NCC(=O)NC(CO[C@@H]5O[C@H](CO)[C@H](O)[C@H](O)[C@H]5O)(CO[C@@H]5O[C@H](CO)[C@H](O)[C@H](O)[C@H]5O)CO[C@@H]5O[C@H](CO)[C@H](O)[C@H](O)[C@H]5O)CC[C@]4(C)[C@H]3CC[C@]12C` [TG(4 Å)C, reference compound], for which, in the assay on rats [4] (setting [9]), the “Contribution to hepatic uptake of Lp(a), EC (endothelial cells)” value came to 10.4 ± 3% and the “Contribution to hepatic uptake of Lp(a), KC (Kupffer cells)” value is 80.3 ± 3%. Also, the “Liver cell type location of charged lp(a) (in words)” value in the assay with rats [4] is recorded as “mainly located in the Kupffer cell”.
In the case of `COC(=O)CCCCC(=O)NCC(=O)NC(COCOCCOCCO[C@@H]1O[C@H](CO)[C@H](O)[C@H](O)[C@H]1O)(COCOCCOCCO[C@@H]1O[C@H](CO)[C@H](O)[C@H](O)[C@H]1O)COCOCCOCCO[C@@H]1O[C@H](CO)[C@H](O)[C@H](O)[C@H]1O` [Compound 15d], the Ki in assay [1] (setting [6]) was 11 µM; in assay [1] (setting [7]) it was 11.2 µM; in assay [2] (read-out: Fuc-Gal receptor Ki) it was above 100 µM; in assay [2] (setting [8]), above 100 µM.
As to `CC(C)CCC[C@@H](C)[C@H]1CC[C@H]2[C@@H]3CC=C4C[C@@H](OC(=O)CCC(=O)NCC(=O)NC(CO[C@@H]5O[C@H](CO)[C@@H](O)[C@H](O)[C@H]5O)(CO[C@@H]5O[C@H](CO)[C@@H](O)[C@H](O)[C@H]5O)CO[C@@H]5O[C@H](CO)[C@@H](O)[C@H](O)[C@H]5O)CC[C@]4(C)[C@H]3CC[C@]12C` [tris-glu-chol, reference compound], the “Total serum cholesterol level” value with rats [5] is “does not lead to a change in the cholesterol level”.
For the compound `COC(=O)CCCCC(=O)NCC(=O)NC(COCOCCCO[C@@H]1O[C@H](CO)[C@H](O)[C@H](O)[C@H]1O)(COCOCCCO[C@@H]1O[C@H](CO)[C@H](O)[C@H](O)[C@H]1O)COCOCCCO[C@@H]1O[C@H](CO)[C@H](O)[C@H](O)[C@H]1O` [Compound 15c], the “Relative affinity for the ASGPr (in words)” value in assay [1] (from Table 2) was “slightly higher affinity than TG(13 Å)”. The Ki in assay [1] (setting [6]) is 1.2 µM; in assay [1] (setting [7]) it was 1.23 µM; in assay [2] (read-out: Fuc-Gal receptor Ki) it was above 100 µM; in assay [2] (setting [8]), above 100 µM.
